Experiments:
C57BL/6 male mice [1] = assay: Survival of mice receiving total body X-ray irradiation (Example 1); type: in vivo
Description: C57BL/6 male mice (24.8±1.6 g in body weight) aged 10 weeks were divided into two groups of 11 mice each. After acclimating to the environment, JAC4 (100 mg/kg) or an equal volume of vehicle (polyethylene glycol:ethanol:physiological saline=47.5:7.5:50, v/v/v) was orally administered to the mice once daily for 7 consecutive days. After that, the mice were subjected to total body X-ray irradiation (6.5 Gy) and JAC4 or vehicle treatment was continued. After 3 days, the administration of JAC4 or vehicle was discontinued. The status was observed daily and the body weights of the mice were recorded.

C57BL/6 male mice [2] = assay: Body weight, spleen and thymus indexes and HE staining after total body irradiation (Example 3); type: in vivo
Description: (§1) C57BL/6 male mice (24.8±1,6 g in body weight) aged 10 weeks were divided into 4 groups of 8 mice each. After acclimating to the environment, JAC4 (100 mg/kg) or an equal volume of vehicle (polyethylene glycol:ethanol:physiological saline=47.5:7.5:50, v/v/v) was orally administered to the mice once daily for 7 consecutive days. After that, the mice in one JAC4 treatment group and one vehicle group were subjected to total body X-ray irradiation (6 Gy) and JAC4 or vehicle treatment was continued. After 3 days, the administration of JAC4 or vehicle was discontinued, and blood samples, small intestine tissues, and thymus and spleen tissues were collected 4 days later.
HE staining was performed on spleen tissues and thymus tissues from mice in all groups, with procedures as follows:
(1) Section deparaffinization: 1) xylene I treatment for 5 min; 2) xylene II treatment for 5 min; 3) xylene III treatment for 5 min; 4) 100% ethanol treatment for 5 min; 5) 100% ethanol II treatment for 5 min; 6) 95% ethanol treatment for 5 min; 7) 90% ethanol treatment for 5 min; 8) 85% ethanol treatment for 5 min; 9) 70% ethanol treatment for 5 min; 10) 60% ethanol treatment for 5 min.
(2) HE staining: After being rinsed with double-distilled water, the sections were stained with hematoxylin solution for 6 min, differentiated with 0.5% hydrochloric acid in alcohol for a short period, and then placed in double-distilled water for bluing. When the chromatin within the cell nuclei was clearly visible under a microscope, the sections were stained with 0.5% eosin for 30 s.

C57BL/6 male mice [3] = assay: Blood biochemistry after total body irradiation (Example 3); type: in vivo
Description: as §1
The biochemical results of the mice were tested, with procedures as follows: Peripheral blood was collected from the orbit into an ethylenediaminetetraacetic acid K3 tube, followed by immediate blood biochemistry analysis on a blood analyzer.

C57BL/6 male mice [4] = assay: Small intestine epithelial injury after abdominal X-ray irradiation 12 Gy (Example 10); type: in vivo; settings: for small intestine crypt height / small intestine histopathological score: JAC4 100 mg/kg; for small intestine villus length: JAC4 100 mg/kg oral 7 days
Description: C57BL/6 male mice (24.7±0.9 g in body weight) aged 10 weeks were divided into 3 groups: a vehicle control group (n=6), a vehicle+radiation group (n=12), and a JAC4+radiation group (n=12). JAC4 (100 mg/kg) or an equal volume of vehicle (polyethylene glycol:ethanol:physiological saline=47.5:7.5:50, v/v/v) was orally administered to the mice once daily for 7 consecutive days. After that, the mice in the radiation groups were subjected to abdominal X-ray irradiation (12 Gy). The mice in the vehicle control group (n=6), the vehicle+radiation group (n=6), and the JAC4+radiation group (n=6) were sacrificed at 6 h, and blood samples and small intestine tissues were collected. The remaining mice in the vehicle+radiation group (n=6) and the JAC4+radiation group (n=6) were sacrificed after day 8, and blood samples and small intestine tissues were collected. In the process, abdominal irradiation was given while sparing the femoral region to minimize damage to the hematopoietic system. After the abdominal irradiation, HE staining was performed on the small intestines of mice in all groups, and the small intestine villus lengths, histopathological scores of the small intestine tissue sections, and the crypt heights were measured in all groups (* p<0.05, *** p<0.001).

IEC-6 cells = assay: Colocalization of cytochrome C and mitochondria in irradiated IEC-6 cells (Example 13); type: cell-based; settings: 1 μM JAC4 24 h pretreatment + 12 Gy, 24 h after
Description: The effect was explored in a small intestinal epithelial IEC-6 cell in-vitro radiation model.
Formulation of JAC4 (1 μM or 10 μM): 5 mg of JAC4 was added to 1527 μL of DMSO to prepare a 10 mM stock solution, which was then serially diluted into 2 mM and 200 μM stock solutions.
10 μL of 200 μM stock solution was added into 90 μL of complete culture medium. The 100-μL mixture was uniformly mixed before 900 μL of complete culture medium was added, and uniformly mixed again before 1 mL of complete culture medium was added. The mixture was again uniformly mixed and then added into a six-well plate to give 1 μM JAC4.
Control wells: 10 μL of DMSO was added into 90 μL of complete culture medium. The 100-μL mixture was uniformly mixed before 900 μL of complete culture medium was added, and uniformly mixed again before 1 mL of complete culture medium was added. The mixture was again uniformly mixed and then added into a six-well plate.
IEC-6 cells were pretreated for 24 h with 1 μM JAC4 or DMSO and subjected to radiation (12 Gy) treatment. After 24 h, colocalized cell immunofluorescent images of mitochondrial cytochrome C staining and mitochondria staining were acquired and subjected to fluorescent colocalization analysis using the Image J software to give colocalization correlation coefficients (***p<0.001) of cytochrome C and mitochondria in IEC-6 cells after different treatments.

SPCA-1 cells = assay: γ-H2AX foci and Western blot (DSBs), SPCA-1 (Example 22); type: cell-based, human
Description: To investigate the effect of JAC4 in combination with X-ray on DSBs in SPCA-1 and BEAS-2B cells, SPCA-1 and BEAS-2B cells were pretreated with 10 μM JAC4 for 24 h and 4 Gy X-ray for 2 h, and then subjected to γ-H2AX fluorescent labeling and Western immunoblot (see Example 4 for detailed procedures).

[5] = JAC4 100 mg/kg oral + TBI 6 Gy vs vehicle + radiation
[6] = non-radiation, JAC4 100 mg/kg oral
[7] = 6 h after abdominal X-ray 12 Gy
[8] = day 8 after abdominal X-ray 12 Gy
[9] = SPCA-1, 10 μM JAC4 + 4 Gy X-ray vs X-ray monotherapy

## c1ccc(CSc2nnc(C3COc4ccccc4O3)o2)nc1 (stereo not drawn) [JAC4]
C57BL/6 male mice [1]; JAC4 100 mg/kg oral once daily, 7 days before to 3 days after total body X-ray 6.5 Gy, observation day 30
  mean survival after radiation: 17.9 ± 8.4 days
C57BL/6 male mice [1]; JAC4 100 mg/kg oral, TBI 6.5 Gy, 11 mice per group
  number of mice died: 6 mice
C57BL/6 male mice [1]; JAC4 100 mg/kg oral, TBI 6.5 Gy, 11 mice per group, vehicle group all dead on day 12
  number of mice survived: 5 mice
C57BL/6 male mice [1]; JAC4 100 mg/kg oral, TBI 6.5 Gy, vs vehicle
  weight loss after radiation: slower
C57BL/6 male mice [2]; JAC4 100 mg/kg oral + TBI 6 Gy
  spleen index: 1.31 ± 0.18 mg/g
  thymus index: 1.63 ± 0.24 mg/g
C57BL/6 male mice [2]; [5]
  HE staining of spleen tissue after X-ray radiation: no significant difference between the vehicle control group and the JAC4 group
  HE staining of thymus tissue after X-ray radiation: no significant difference between the vehicle control group and the JAC4 group
C57BL/6 male mice [2]; JAC4 100 mg/kg oral, TBI 6 Gy
  degree of body weight loss: significantly less than that in the control group
C57BL/6 male mice [2]; [6]
  spleen index: 3.22 ± 0.26 mg/g
  thymus index: 2.51 ± 0.43 mg/g
C57BL/6 male mice [3]; JAC4 100 mg/kg oral + TBI 6 Gy
  ALT: 31.33±3.14 U/L
  AST: 110.17±20.86 U/L
  CK-MB: 437.67±90.38 U/L
  LDH: 888.67±81.48 U/L
  SOD: 133.00±6.96 U/mL
C57BL/6 male mice [3]; [6]
  ALT: 47.17±14.81 U/L
  AST: 140.83±38.72 U/L
  CK-MB: 565.50±261.37 U/L
  LDH: 444.00±94.58 U/L
C57BL/6 male mice [4]; [7]
  small intestine crypt height: 49.80±4.06 μm
  small intestine histopathological score: 3.17±0.41
  small intestine villus length: 308.25±25.65 μm
C57BL/6 male mice [4]; [8]
  small intestine crypt height: 53.76±3.33 μm
  small intestine histopathological score: 2.83±0.41
  small intestine villus length: 300.38±33.27 μm
IEC-6 cells
  fluorescent colocalization correlation coefficient of the mitochondria and cytochrome C: 0.73±0.02
SPCA-1 cells; SPCA-1, 10 μM JAC4 24 h + 4 Gy X-ray 2 h vs X-ray monotherapy
  γ-H2AX foci: increase
SPCA-1 cells; [9]
  JWA expression level (Western blot): increased
  γ-H2AX expression level (Western blot): increased

Source: US20250345318A1, “COMPOUND AND USE THEREOF IN PREVENTING OR TREATING RADIATION DAMAGE” (SIMCERE PHARMACEUTICAL CO., LTD., priority 2022, published 2025)
